From US6048873A, “Tetrahdroquinolin-2-one 6 or 7-yl, tetrahdroquinilin-2-thione 6 or 7-yl pentadienoic acid and related derivatives having retinoid-like biological activity” (Allergan Sales, Inc., priority 1998, dated 2000)

Key:
[1] = target: T1, RXRα (Homo sapiens, UniProt P19793); assay: RXRα receptor transactivation (Table 1); format: cell-based; conditions: RXR α; for Emax: read-out: % Eff
T1 construct: expressed in transfected cells
T1 sequence (P19793 1-462): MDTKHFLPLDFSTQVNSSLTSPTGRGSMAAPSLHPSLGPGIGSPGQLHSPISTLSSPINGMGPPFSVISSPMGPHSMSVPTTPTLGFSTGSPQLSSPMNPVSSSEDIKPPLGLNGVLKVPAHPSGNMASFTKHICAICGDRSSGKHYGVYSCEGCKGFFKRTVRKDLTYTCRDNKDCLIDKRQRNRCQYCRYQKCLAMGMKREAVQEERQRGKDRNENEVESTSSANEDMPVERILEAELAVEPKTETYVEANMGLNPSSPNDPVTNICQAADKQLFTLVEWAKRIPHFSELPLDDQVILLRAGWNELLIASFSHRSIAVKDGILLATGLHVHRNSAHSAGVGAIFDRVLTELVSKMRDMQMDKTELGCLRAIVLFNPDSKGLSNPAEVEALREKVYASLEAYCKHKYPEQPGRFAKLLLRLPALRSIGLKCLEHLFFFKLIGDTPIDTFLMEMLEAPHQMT
Text: (§1) Other assays described below, measure the ability of the compounds of the present invention to bind to, and/or activate various retinoid receptor subtypes. When in these assays a compound binds to a given receptor subtype and activates the transcription of a reporter gene through that subtype, then the compound is considered an agonist of that receptor subtype. […] In the below described assays the ability of the compounds to bind to RARα, RARβ, RARγ, RXRα, RXRβ and RXRγ receptors, and the ability or inability of the compounds to activate transcription of a reporter gene through these receptor subtypes can be tested. […] However, some of the compounds of the invention may behave as retinoid antagonists or partial antagonists and/or as inverse agonists. Because of the complex distribution of the different retinoid receptors in various organs of the mammalian body partial agonists and partial antagonists and compounds which have the characteristics of both may lend themselves to particularly useful therapeutic applications and may avoid serious side effects of conventional retinoid drugs.
The specification of U.S. Pat. No. 5,455,265 is hereby expressly incorporated by reference.
(§2) A holoreceptor transactivation assay and a ligand binding assay which measure the antagonist/agonist like activity of the compounds of the invention, or their ability to bind to the several retinoid receptor subtypes, respectively, are described in published PCT Application No. WO WO93/11755 (particularly on pages 30-33 and 37-41) published on Jun. 24, 1993, the specification of which is also incorporated herein by reference. A detailed experimental procedure for holoreceptor transactivations has been described by Heyman et al. Cell 68, 397-406, (1992); Allegretto et al. J. Biol. Chem. 268, 26625-26633, and Mangelsdorf et al. The Retinoids: Biology, Chemistry and Medicine, pp 319-349, Raven Press Ltd., New York, which are expressly incorporated herein by reference. The results obtained in this assay are expressed in EC50 numbers, as they are also in the chimeric receptor transactivation assay. The results of ligand binding assay are expressed in Kd numbers. (See Cheng et al. Biochemical Pharmacology Vol. 22 pp 3099-3108, expressly incorporated herein by reference.)

[2] = target: T2, RXRγ (Mus musculus, UniProt P28705); assay: RXRγ ligand binding (Table 1); conditions: RXR γ
T2 construct: expressed in transfected cells
T2 sequence (P28705 1-463): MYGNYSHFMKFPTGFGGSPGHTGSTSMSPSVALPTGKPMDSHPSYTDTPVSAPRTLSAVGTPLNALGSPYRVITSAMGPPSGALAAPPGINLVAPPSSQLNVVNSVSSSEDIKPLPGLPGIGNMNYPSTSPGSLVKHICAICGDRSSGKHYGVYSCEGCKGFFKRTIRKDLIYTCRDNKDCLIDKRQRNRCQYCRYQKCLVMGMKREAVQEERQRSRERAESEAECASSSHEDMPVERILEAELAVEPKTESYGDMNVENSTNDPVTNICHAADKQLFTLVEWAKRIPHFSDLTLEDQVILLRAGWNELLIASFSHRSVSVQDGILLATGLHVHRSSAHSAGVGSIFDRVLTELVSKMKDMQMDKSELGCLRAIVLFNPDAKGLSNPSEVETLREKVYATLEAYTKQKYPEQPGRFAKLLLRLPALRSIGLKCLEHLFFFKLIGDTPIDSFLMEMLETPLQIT
Text: as §1
as §2, with “(See Cheng et al. Biochemical Pharmacology Vol. 22 pp 3099-3108, expressly incorporated herein by reference.)” left out

[3] = target: T3, RARγ (Homo sapiens, UniProt P13631); assay: RARγ ligand binding (Table 2); conditions: RAR γ
T3 sequence (P13631 1-454): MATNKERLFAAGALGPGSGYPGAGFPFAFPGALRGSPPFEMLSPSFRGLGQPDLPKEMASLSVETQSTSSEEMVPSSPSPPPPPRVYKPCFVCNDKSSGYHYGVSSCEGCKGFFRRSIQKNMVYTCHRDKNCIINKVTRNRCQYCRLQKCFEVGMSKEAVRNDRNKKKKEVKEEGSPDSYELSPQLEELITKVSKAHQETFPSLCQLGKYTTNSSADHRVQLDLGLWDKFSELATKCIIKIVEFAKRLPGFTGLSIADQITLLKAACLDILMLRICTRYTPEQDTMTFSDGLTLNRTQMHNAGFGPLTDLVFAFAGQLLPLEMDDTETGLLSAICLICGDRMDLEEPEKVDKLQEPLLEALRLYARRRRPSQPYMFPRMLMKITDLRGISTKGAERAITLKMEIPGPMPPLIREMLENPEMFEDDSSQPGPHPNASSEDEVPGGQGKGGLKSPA
Text: as §1
as §2, with “(See Cheng et al. Biochemical Pharmacology Vol. 22 pp 3099-3108, expressly incorporated herein by reference.)” left out

[4] = target: T4, RXRβ (Mus musculus, UniProt P28704); assay: RXRβ receptor transactivation (Table 1); format: cell-based; conditions: RXR β; for Emax: read-out: % Eff
T4 construct: expressed in transfected cells
T4 sequence (P28704 1-520): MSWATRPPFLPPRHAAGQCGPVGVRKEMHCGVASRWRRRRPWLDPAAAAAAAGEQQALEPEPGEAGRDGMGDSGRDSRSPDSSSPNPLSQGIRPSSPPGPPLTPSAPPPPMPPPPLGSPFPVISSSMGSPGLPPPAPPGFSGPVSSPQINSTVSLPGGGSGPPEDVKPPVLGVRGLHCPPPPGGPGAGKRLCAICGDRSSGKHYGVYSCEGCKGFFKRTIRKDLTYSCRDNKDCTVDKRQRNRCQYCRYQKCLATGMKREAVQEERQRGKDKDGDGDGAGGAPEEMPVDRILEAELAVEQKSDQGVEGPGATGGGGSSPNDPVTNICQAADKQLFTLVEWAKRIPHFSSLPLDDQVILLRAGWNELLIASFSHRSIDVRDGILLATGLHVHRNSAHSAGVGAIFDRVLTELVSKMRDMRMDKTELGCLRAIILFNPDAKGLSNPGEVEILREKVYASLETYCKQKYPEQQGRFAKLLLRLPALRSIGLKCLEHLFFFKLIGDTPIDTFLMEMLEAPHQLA
Text: as §1, §2

[5] = target: T5, RARα (Homo sapiens, UniProt P10276); assay: RARα ligand binding (Table 2); conditions: RAR α
T5 sequence (P10276 1-462): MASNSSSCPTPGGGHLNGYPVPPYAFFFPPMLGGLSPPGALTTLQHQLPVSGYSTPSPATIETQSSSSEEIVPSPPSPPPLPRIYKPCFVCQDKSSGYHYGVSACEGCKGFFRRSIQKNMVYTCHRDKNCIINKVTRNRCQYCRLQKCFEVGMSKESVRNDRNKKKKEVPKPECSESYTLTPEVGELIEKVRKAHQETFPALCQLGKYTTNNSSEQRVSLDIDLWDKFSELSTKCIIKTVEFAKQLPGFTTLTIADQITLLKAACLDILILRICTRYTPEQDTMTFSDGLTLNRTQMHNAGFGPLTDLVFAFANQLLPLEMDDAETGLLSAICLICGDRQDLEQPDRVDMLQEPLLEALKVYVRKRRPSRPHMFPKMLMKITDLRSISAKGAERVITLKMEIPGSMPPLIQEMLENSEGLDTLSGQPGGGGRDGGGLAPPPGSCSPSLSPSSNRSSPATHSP
Text: as §1
as §2, with “(See Cheng et al. Biochemical Pharmacology Vol. 22 pp 3099-3108, expressly incorporated herein by reference.)” left out

[6] = target: T6, RARβ (Homo sapiens, UniProt P10826); assay: RARβ ligand binding (Table 2); conditions: RAR β
T6 sequence (P10826 1-448 isoform P10826-2): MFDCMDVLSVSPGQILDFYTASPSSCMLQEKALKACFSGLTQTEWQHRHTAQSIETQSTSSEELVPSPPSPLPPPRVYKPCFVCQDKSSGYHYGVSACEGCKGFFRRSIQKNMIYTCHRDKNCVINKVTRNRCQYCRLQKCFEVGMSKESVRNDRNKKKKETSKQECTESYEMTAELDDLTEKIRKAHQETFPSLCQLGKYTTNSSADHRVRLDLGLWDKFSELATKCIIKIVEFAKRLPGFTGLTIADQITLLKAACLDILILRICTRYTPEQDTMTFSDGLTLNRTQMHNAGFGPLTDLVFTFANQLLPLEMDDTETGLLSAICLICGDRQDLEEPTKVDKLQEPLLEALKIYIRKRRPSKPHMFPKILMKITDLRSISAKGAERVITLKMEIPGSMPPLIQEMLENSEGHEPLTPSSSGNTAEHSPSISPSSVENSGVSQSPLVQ
Text: as §1
as §2, with “(See Cheng et al. Biochemical Pharmacology Vol. 22 pp 3099-3108, expressly incorporated herein by reference.)” left out

[7] = target: T2, RXRγ; assay: RXRγ receptor transactivation (Table 1); format: cell-based; conditions: RXR γ; for Emax: read-out: % Eff
Text: as §1, §2

[8] = target: T1, RXRα; assay: RXRα ligand binding (Table 1); conditions: RXR α
Text: as §1
as §2, with “(See Cheng et al. Biochemical Pharmacology Vol. 22 pp 3099-3108, expressly incorporated herein by reference.)” left out

An EC50 [1] of 0.077 nM, an Emax [1] of 107% and a Kd [2] of 3.1 nM were found for `CC(/C=C/[C@@H]1C[C@]1(C)c1ccc2c(c1)C(C)(C)CC(=O)N2C(C)C)=C\C(=O)O` [Compound 1, (6S,7S)-7-(4,4-Dimethyl-2-oxo-1-(2-propyl)-1,2,3,4-tetrahydroquinolin-6-yl)-6,7-methano-3-methyl-octa-2E,4E-dienoic acid] in this work. The Kd [3] was > 10 µM, the EC50 [4] was 0.627 nM and the Emax [4] was 109%. For the same compound, the Kd [5] was > 10 µM, the Kd [6] was > 10 µM and the EC50 [7] was 0.085 nM. For the same compound, the Emax [7] was 115% and the Kd [8] was 1.4 nM.
An EC50 [1] of 0.064 nM, an Emax [1] of 160% and a Kd [2] of 10.5 nM were found for `CC(/C=C/[C@@H]1C[C@]1(C)c1ccc2c(c1)C(C)(C)CC(=S)N2C(C)C)=C\C(=O)O` [Compound 2, (6S,7S)-7-(4,4-Dimethyl-1-(2-propyl)-2-thioxo-1,2,3,4-tetrahydroquinolin-6-yl)-6,7-methano-3-methyl-octa-2E,4E-dienoic acid] in this work. The Kd [3] was 25 µM, the EC50 [4] was 0.376 nM and the Emax [4] was 144%. For the same compound, the Kd [5] was 27 µM, the Kd [6] was 31 µM and the EC50 [7] was 0.059 nM. It also gave an Emax [7] of 137% and a Kd [8] of 0.97 nM.
An EC50 [1] of 0.15 nM, an Emax [1] of 110% and a Kd [2] of 4.1 nM were found for `CC(/C=C/[C@@H]1C[C@]1(C)c1ccc2c(c1)C(C)(C)CCN2C(=O)OC(C)(C)C)=C\C(=O)O` [Compound 17] in this work. It also gave a Kd [3] of 12 µM, an EC50 [4] of 0.42 nM and an Emax [4] of 115%. The Kd [5] was > 30 µM, the Kd [6] was 10 µM and the EC50 [7] was 0.31 nM. The Emax [7] was 101% and the Kd [8] was 0.35 nM.
